# Test results taken from US4024277A, “Phosphoro-aminosulfenyl derivatives of benzofuran carbamates” (priority 1975, dated 1977).
# Tests used:
# pea aphid [1] = assay: Initial insecticidal activity, pea aphid; assay type: in vivo, Acyrthosiphon pisum (Harris); details: Acyrthosiphon pisum, 48-hour exposure, read-out: % Kill, Pea Aphid
# Method in brief: (§1)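 Candidate insecticide solutions were sprayed or dipped onto plants or containers, infested before or after treatment depending on species. Mortality was read after a 48-hour exposure, alongside a solvent-only control.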
# southern armyworm [2] = assay: Initial insecticidal activity, southern armyworm; assay type: in vivo, Spodoptera eridania (Cramer); details: Spodoptera eridania, 48-hour exposure, read-out: % Kill, Southern Armyworm
# Method in brief: as §1
# [3] = test system: female house flies (resistant); assay: Level II topical test, house flies; assay type: in vivo, Musca domestica Linnaeus; details: HF (female, resistant), one microgram topically per insect; for % Knockdown: 10 minutes; for mortality at 0.001 mg: Musca domestica, topical, read-out: % Kill
# Experimental: (§2) e. Insecticidal Activity Against House Flies and German Cockroaches
# (§3) In a Level II test the compounds of this invention were tested for insecticidal activity against female house flies (resistant) and male German cockroaches. Ten insects were anesthetized with carbon dioxide and placed in a container for about 2 hours, during which time the insects recovered to normal activity. The container confining the insects is fitted with a plunger which is used to force the insects against a nylon mesh at one end of the container. One microliter of an acetone solution containing one microgram of the candidate insecticide was applied topically to each insect. The plunger was withdrawn and the insects were allowed to move freely about the container. Knockdown counts were recorded 10 minutes after treatment of house flies and 30 minutes after treatment of cockroaches.
# large milkweed bug [4] = assay: Seven-day residual insecticidal activity, milkweed bug; assay type: in vivo, Oncopeltus fasciatus (Dallas); details: Oncopeltus fasciatus, 48-hour exposure, read-out: % Kill, Milkweed Bug
# Description: (§4) b. Seven-Day Residual Insecticidal Activity
# (§5) In this test, a candidate insecticide, in solution, is applied to uninfested plants or containers by dipping or spraying. A seven-day holding period is necessary before infestation. A 48-hour exposure period is observed before evaluation of the tests. The insect species used in this type of test are the same as those listed under initial activity.
# plum curculio = assay: Initial insecticidal activity, plum curculio; assay type: in vivo, Conotrachelus nenuphar (Herbst); details: Conotrachelus nenuphar, 48-hour exposure, read-out: % Kill, Plum Curculio
# Method in brief: as §1
# twospotted spider mite = assay: Initial insecticidal activity, twospotted spider mite; assay type: in vivo, Tetranychus urticae Koch; details: Tetranychus urticae, 48-hour exposure, read-out: % Kill, Twospotted Spider Mite
# Method in brief: as §1
# German cockroaches [5] = assay: Level I immersion test, German cockroaches; assay type: in vivo, Blattella germanica (Linnaeus); details: GC (male), 5 mg/milliliter; for mortality at 5000 µg/mL: Blattella germanica, 18-24 hours, read-out: % Kill; for % Knockdown: 30 minutes after immersion
# Experimental: as §2
# (§6) Compounds of this invention were tested in a Level I test at 5 mg. of active compounds/milliliter of a solution of 40% acetone -- 60% water.
# (§7) In this test a group of ten house flies (Musca domestica Linnaeus) were completely immersed in 25 ml. of the insecticidal test solution. After 10 seconds of immersion, the test solution is removed. The house flies are then transferred to holding cages lines with paper toweling. In the case of the house flies, the knockdown counts were recorded 10 minutes after termination of the immersion. The percent kill was recorded after 18-24 hours.
# The same Level I test technique was employed using male German cockroaches [Blattella germanica (Linnaeus)]. In this case, the knockdown counts were recorded 30 minutes after the termination of the immersion.
# German cockroaches [6] = assay: Level II topical test, German cockroaches; assay type: in vivo, Blattella germanica (Linnaeus); details: GC (male), one microgram topically per insect; for mortality at 0.001 mg: Blattella germanica, topical, read-out: % Kill; for % Knockdown: 30 minutes
# Experimental: as §2, §3
# Mexican bean beetle [7] = assay: Initial insecticidal activity, Mexican bean beetle; assay type: in vivo, Epilachna varivestis Mulsant; details: Epilachna varivestis, 48-hour exposure, read-out: % Kill, Mexican Bean Beetle
# Method in brief: as §1
# house flies = assay: Level I immersion test, house flies; assay type: in vivo, Musca domestica Linnaeus; details: HF, 5 mg/milliliter; for % Knockdown: 10 minutes after immersion; for mortality at 5000 µg/mL: Musca domestica, after 18-24 hours, read-out: % Kill
# Experimental: as §2, §6, §7
# large milkweed bug [8] = assay: Initial insecticidal activity, milkweed bug; assay type: in vivo, Oncopeltus fasciatus (Dallas); details: Oncopeltus fasciatus, 48-hour exposure, read-out: % Kill, Milkweed Bug
# Method in brief: as §1
# confused flour beetle [9] = assay: Initial insecticidal activity, confused flour beetle; assay type: in vivo, Tribolium confusum Jacquelin duVal; details: Tribolium confusum, 48-hour exposure, read-out: % Kill, Confused Flour Beetle
# Method in brief: as §1
# southern armyworm [10] = assay: Seven-day residual insecticidal activity, southern armyworm; assay type: in vivo, Spodoptera eridania (Cramer); details: Spodoptera eridania, 48-hour exposure, read-out: % Kill, Southern Armyworm
# Description: as §4, §5
# pea aphid [11] = assay: Seven-day residual insecticidal activity, pea aphid; assay type: in vivo, Acyrthosiphon pisum (Harris); details: Acyrthosiphon pisum, 48-hour exposure, read-out: % Kill, Pea Aphid
# Description: as §4, §5
# Mexican bean beetle [12] = assay: Seven-day residual insecticidal activity, Mexican bean beetle; assay type: in vivo, Epilachna varivestis Mulsant; details: Epilachna varivestis, 48-hour exposure, read-out: % Kill, Mexican Bean Beetle
# Description: as §4, §5
# confused flour beetle [13] = assay: Seven-day residual insecticidal activity, confused flour beetle; assay type: in vivo, Tribolium confusum Jacquelin duVal; details: Tribolium confusum, 48-hour exposure, read-out: % Kill, Confused Flour Beetle
# Description: as §4, §5
smiles,measurement,setting,value
"CC(C)OP(=O)(OC(C)C)N(C)SN(C)C(=O)Oc1cccc2c1OC(C)(C)C2 [6(c), 2,3-Dihydro-2,2-dimethyl-7-benzofuranyl [(N-diisopropoxyphosphinyl) (N-methyl)aminosulfenyl][methyl]carbamate]",mortality at 39 ppm,pea aphid [1],28%
same,mortality at 156 ppm,pea aphid [1],60%
same,mortality at 1250 ppm,pea aphid [1],100%
same,mortality at 39 ppm,southern armyworm [2],6%
same,mortality at 156 ppm,southern armyworm [2],73%
same,mortality at 1250 ppm,southern armyworm [2],100%
same,% Knockdown,[3],0%
same,mortality at 0.001 mg,[3],27%
same,mortality at 39 ppm,large milkweed bug [4],5%
same,mortality at 156 ppm,large milkweed bug [4],25%
same,mortality at 1250 ppm,large milkweed bug [4],100%
same,mortality at 39 ppm,plum curculio,0%
same,mortality at 156 ppm,plum curculio,45%
same,mortality at 1250 ppm,plum curculio,100%
same,mortality at 39 ppm,twospotted spider mite,6%
same,mortality at 156 ppm,twospotted spider mite,23%
same,mortality at 1250 ppm,twospotted spider mite,100%
same,mortality at 5000 µg/mL,German cockroaches [5],100%
same,% Knockdown,German cockroaches [5],100%
same,mortality at 0.001 mg,German cockroaches [6],0%
same,% Knockdown,German cockroaches [6],0%
same,mortality at 39 ppm,Mexican bean beetle [7],100%
same,mortality at 156 ppm,Mexican bean beetle [7],94%
same,mortality at 1250 ppm,Mexican bean beetle [7],100%
same,% Knockdown,house flies,100%
same,mortality at 5000 µg/mL,house flies,100%
same,mortality at 39 ppm,large milkweed bug [8],95%
same,mortality at 156 ppm,large milkweed bug [8],100%
same,mortality at 1250 ppm,large milkweed bug [8],100%
same,mortality at 39 ppm,confused flour beetle [9],0%
same,mortality at 156 ppm,confused flour beetle [9],0%
same,mortality at 1250 ppm,confused flour beetle [9],18%
same,mortality at 39 ppm,southern armyworm [10],0%
same,mortality at 156 ppm,southern armyworm [10],0%
same,mortality at 1250 ppm,southern armyworm [10],7%
same,mortality at 39 ppm,pea aphid [11],0%
same,mortality at 156 ppm,pea aphid [11],0%
same,mortality at 1250 ppm,pea aphid [11],5%
same,mortality at 39 ppm,Mexican bean beetle [12],6%
same,mortality at 156 ppm,Mexican bean beetle [12],38%
same,mortality at 1250 ppm,Mexican bean beetle [12],100%
same,mortality at 39 ppm,confused flour beetle [13],0%
same,mortality at 156 ppm,confused flour beetle [13],0%
same,mortality at 1250 ppm,confused flour beetle [13],0%
"CCCOP(=O)(OCCC)N(C)SN(C)C(=O)Oc1cccc2c1OC(C)(C)C2 [2(d), 2,3-dihydro-2,2-dimethyl-7-benzofuranyl [(N-di-n-propoxyphosphinyl) (N-methyl)aminosulfenyl][methyl]carbamate]",mortality at 39 ppm,pea aphid [1],86%
same,mortality at 156 ppm,pea aphid [1],100%
same,mortality at 1250 ppm,pea aphid [1],100%
same,mortality at 39 ppm,southern armyworm [2],0%
same,mortality at 156 ppm,southern armyworm [2],54%
same,mortality at 1250 ppm,southern armyworm [2],100%
same,% Knockdown,[3],0%
same,mortality at 0.001 mg,[3],40%
same,mortality at 39 ppm,large milkweed bug [4],56%
same,mortality at 156 ppm,large milkweed bug [4],100%
same,mortality at 1250 ppm,large milkweed bug [4],100%
same,mortality at 39 ppm,plum curculio,0%
same,mortality at 156 ppm,plum curculio,20%
same,mortality at 1250 ppm,plum curculio,100%
same,mortality at 39 ppm,twospotted spider mite,39%
same,mortality at 156 ppm,twospotted spider mite,91%
same,mortality at 1250 ppm,twospotted spider mite,100%
same,mortality at 5000 µg/mL,German cockroaches [5],100%
same,% Knockdown,German cockroaches [5],100%
same,mortality at 0.001 mg,German cockroaches [6],10%
same,% Knockdown,German cockroaches [6],0%
same,mortality at 39 ppm,Mexican bean beetle [7],100%
same,mortality at 156 ppm,Mexican bean beetle [7],100%
same,mortality at 1250 ppm,Mexican bean beetle [7],100%
same,% Knockdown,house flies,100%
same,mortality at 5000 µg/mL,house flies,100%
same,mortality at 39 ppm,large milkweed bug [8],100%
same,mortality at 156 ppm,large milkweed bug [8],100%
same,mortality at 1250 ppm,large milkweed bug [8],100%
same,mortality at 39 ppm,confused flour beetle [9],0%
same,mortality at 156 ppm,confused flour beetle [9],2%
same,mortality at 1250 ppm,confused flour beetle [9],72%
same,mortality at 39 ppm,southern armyworm [10],0%
same,mortality at 156 ppm,southern armyworm [10],0%
same,mortality at 1250 ppm,southern armyworm [10],60%
same,mortality at 39 ppm,pea aphid [11],0%
same,mortality at 156 ppm,pea aphid [11],0%
same,mortality at 1250 ppm,pea aphid [11],56%
same,mortality at 39 ppm,Mexican bean beetle [12],50%
same,mortality at 156 ppm,Mexican bean beetle [12],76%
same,mortality at 1250 ppm,Mexican bean beetle [12],100%
same,mortality at 39 ppm,confused flour beetle [13],0%
same,mortality at 156 ppm,confused flour beetle [13],2%
same,mortality at 1250 ppm,confused flour beetle [13],38%
